Assay results as given in paper PMC11062575 (Science Advances, 2024).
Changes are numbered by the printed parent chain.

How the values were obtained:
wild-type human TRPV3 = target: T1, wild-type human TRPV3 (Homo sapiens, UniProt Q8NET8); experiment: Fura-2AM ratiometric Ca2+ uptake measurements, wild-type TRPV3; type: cell-based
T1 sequence (Q8NET8 1-791 isoform Q8NET8-2): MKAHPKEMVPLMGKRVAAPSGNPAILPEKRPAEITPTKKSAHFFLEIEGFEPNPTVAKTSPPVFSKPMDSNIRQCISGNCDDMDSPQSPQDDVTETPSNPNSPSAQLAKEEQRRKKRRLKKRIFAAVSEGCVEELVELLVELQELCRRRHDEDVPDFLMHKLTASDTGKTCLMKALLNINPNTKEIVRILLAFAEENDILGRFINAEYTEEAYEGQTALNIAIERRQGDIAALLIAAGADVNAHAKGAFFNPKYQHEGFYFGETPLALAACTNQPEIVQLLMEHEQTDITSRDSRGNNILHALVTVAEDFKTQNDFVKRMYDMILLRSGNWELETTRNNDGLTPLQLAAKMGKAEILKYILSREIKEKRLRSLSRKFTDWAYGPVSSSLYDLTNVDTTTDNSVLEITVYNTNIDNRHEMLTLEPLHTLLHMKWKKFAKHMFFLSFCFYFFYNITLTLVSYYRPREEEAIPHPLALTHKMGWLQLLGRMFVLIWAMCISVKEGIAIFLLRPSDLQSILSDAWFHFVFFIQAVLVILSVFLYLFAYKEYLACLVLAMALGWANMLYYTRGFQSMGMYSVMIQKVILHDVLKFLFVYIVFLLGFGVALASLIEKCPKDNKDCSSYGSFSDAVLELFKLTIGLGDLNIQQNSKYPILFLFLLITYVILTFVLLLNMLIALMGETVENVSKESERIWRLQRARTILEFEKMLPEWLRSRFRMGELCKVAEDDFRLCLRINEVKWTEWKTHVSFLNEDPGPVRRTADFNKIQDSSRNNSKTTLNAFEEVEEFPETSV

human TRPV3 L557A mutant = target: T2, human TRPV3 L557A mutant (Homo sapiens, UniProt Q8NET8, L557A); experiment: Fura-2AM Ca2+ uptake measurements, L557A mutant; type: cell-based
T2 sequence (Q8NET8 1-791 isoform Q8NET8-2 L557A): T1 sequence (Q8NET8 1-791 isoform Q8NET8-2) with L557A

human TRPV3 C496A mutant = human TRPV3 C496A mutant (Homo sapiens, UniProt Q8NET8, C496A); settings: C496A vs wild type
Chain of human TRPV3 C496A mutant (Q8NET8 1-791 isoform Q8NET8-2 C496A): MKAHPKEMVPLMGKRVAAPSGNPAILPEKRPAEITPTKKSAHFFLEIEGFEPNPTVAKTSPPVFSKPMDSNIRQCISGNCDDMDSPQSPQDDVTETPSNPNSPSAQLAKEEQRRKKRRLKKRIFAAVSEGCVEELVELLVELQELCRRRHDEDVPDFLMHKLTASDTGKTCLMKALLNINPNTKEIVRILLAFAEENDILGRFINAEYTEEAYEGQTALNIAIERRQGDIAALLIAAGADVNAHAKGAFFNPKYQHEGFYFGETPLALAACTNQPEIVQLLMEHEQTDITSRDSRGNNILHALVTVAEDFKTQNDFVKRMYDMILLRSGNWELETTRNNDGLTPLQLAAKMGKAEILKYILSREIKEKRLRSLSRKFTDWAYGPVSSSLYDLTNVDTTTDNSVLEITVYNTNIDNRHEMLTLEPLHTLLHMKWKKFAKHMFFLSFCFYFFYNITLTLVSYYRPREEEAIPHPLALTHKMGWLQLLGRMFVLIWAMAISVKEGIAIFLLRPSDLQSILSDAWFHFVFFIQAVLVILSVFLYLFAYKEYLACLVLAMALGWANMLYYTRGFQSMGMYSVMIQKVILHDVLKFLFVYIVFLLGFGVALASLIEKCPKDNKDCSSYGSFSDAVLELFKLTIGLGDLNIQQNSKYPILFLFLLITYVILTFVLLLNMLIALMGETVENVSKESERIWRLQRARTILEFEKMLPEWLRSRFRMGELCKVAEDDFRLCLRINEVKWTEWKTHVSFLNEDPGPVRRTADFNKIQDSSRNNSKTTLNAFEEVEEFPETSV

mouse TRPV3 Y564A = mouse TRPV3 Y564A vs wild type; cited from earlier work

Row | SMILES | EC50 (wild-type human TRPV3) | maximum absolute value of the fluorescence intensity ratio (F340/F380) (wild-type human TRPV3; wild type, n = 3) | EC50 (human TRPV3 L557A mutant) | maximum absolute value of the fluorescence intensity ratio (F340/F380) (human TRPV3 L557A mutant; L557A, n = 3, P = 0.61 vs wild type) | activating potency enhanced compared to wild-type TRPV3 (human TRPV3 C496A mutant) | increase in 2-APB potency on Y564 substitution with alanine (mouse TRPV3 Y564A)
1 | CCCc1cc(O)c2c(c1)OC(C)(C)[C@@H]1CCC(C)=C[C@@H]21 [THCV, tetrahydrocannabivarin] | 6.1 ± 0.5 µM | 5.29 ± 0.04 | 0.081 ± 0.001 µM | 5.58 ± 0.47 |  | 
2 | NCCOB(c1ccccc1)c1ccccc1 [2-APB, 2-aminoethoxydiphenylborane] |  |  |  |  | ~ 3 fold | 20 fold
